Earlier results, collected in US20250019345A1, “NEW CANNABINOID-GAB[…] USES THEREOF” (LONDON PHARMACEUTICALS AND RESEARCH CORPORATION, priority 2021, published 2025).

Settings: after oral administration; for Tmax: cannabinoids

SMILES	bioavailability	Tmax [h]
CC(C)C[C@H](CN)CC(=O)O [pregabalin]	exceed 90%	
C=C(C)[C@@H]1CCC(C)=C[C@H]1c1c(O)cc(CCCCC)cc1O [CBD, cannabidiol]		~4
CCCCCc1cc(O)c2c(c1)OC(C)(C)[C@@H]1CCC(C)=C[C@@H]21 [THC, delta-9-tetrahydrocannabinol]		~4
